Data from patent US10610524B2, “Cellular hydration compositions” (Eastpond Laboratories Limited, priority 2010, dated 2020).

Columns and labels:
[1] = tested on: C. elegans nematodes; test: Lifespan of C. elegans in hydration modified water media; type: in vivo; conditions: for Animals alive: USA I water; for effect on C. elegans survival: added to culture media, result in words
Experimental: C. elegans nematodes were grown in petri-type dishes containing normal nutrient liquid media prepared alternatively with USA I water (described in Example 2) lacking any further additive component (control) or the same water supplemented with a parent α-, β-, or γ-cyclodextrin, and/or a bioactive agent, as an active component of cellular hydration. Fifty±3 worms were transferred to each dish. Each condition was repeated in triplicate. Experiments were repeated for USA II and BP I waters described in Example 2. A. Addition of parent α-, β- and γ-cyclodextrins. B. Addition of L-arginine and nicotinamide. C. Addition of inclusion complexes of cyclodextrins with L-arginine and nicotinamide.

[2] = NIR spectroscopy of water bonding with cyclodextrin additives; type: physicochemical
Experimental: Hydration bond energies in pure waters and solutions of the same waters containing cyclodextrin compounds were assayed using IR spectroscopy in the near and middle infrared ranges. To record linear signals throughout an entire wavelength range, attenuation from water absorbance was minimized with a short optical length cuvette.
NIR range spectra were registered on a FOSS NIR Systems, Inc. 6500 spectrometer and Sample Transport Module (STM) using a 1 mm-es cuvette. […]
Three samples of water were used in the present study. A first water sample (USA I) was obtained from the U.S. and was purified by reverse osmosis, carbon filtration, ultraviolet light exposure, membrane filtration to 0.2 micron absolute, and ozonation. A second water sample (USA II) was also obtained from the U.S. A third water sample (BP I) was obtained from Budapest, Hungary.
The following cyclodextrins were added to the above described water samples at a concentration range of 0.1%-5% w/v: • α-cyclodextrin (αCD also denoted as ACD), Lot. No. CYL-2322. • β-cyclodextrin (βCD also denoted as BCD). Lot. No. CYL-2518/2. • γ-cyclodextrin (γCD also denoted as GCD), Lot. No. CYL-2323. • 2-hydroxypropyl-β-cyclodextrin (HPβCD, HPBCD), DS*=3.5, Lot. No. CYL-2232. • 2-hydroxypropyl-γ-cyclodextrin (HPCD, HPGCD), DS*=4.8, Lot. No. CYL-2258. • carboxymethyl-β-cyclodextrin (CMBCD), Lot. No. CYL-2576. • quaternary-ammonium-β-cyclodextrin (QABCD).

[3] = tested on: Wheat seeds (Triticum aestivum); test: Wheat seed germination kinetics in additive-modified water; type: in vivo; conditions: additive 0.5% w/v in USA I water
Experimental: Wheat seeds (Triticum aestivum) were germinated using USA I, USA II, and BP I waters described for Example 2. Germination rate using un-supplemented (control) water was compared to that with the same water variously supplemented with a cyclodextrin component, and/or a bioactive agent, as an active component of cellular hydration. For each condition, ten seeds were placed in continuous water contact in a Petri-type dish kept at 25 C in 12 hr light/dark cycles. Photometric images were recorded on days 1 to 6 after seeding. The percentage of seeds germinated was calculated and compared as a function of time and of the applied additive concentrations.
Water samples for seed germination were used alone with no additive, or containing cyclodextrins, or containing clathrate inclusion complexes of cyclodextrin with L-arginine or with nicotinamide (both obtained from Sigma Chemical Co.; St. Louis, Mo.), or with L-carnitine (from Lonza AG; Switzerland). […] Additive solutions were prepared fresh on the day of germination start.
Parent cyclodextrins α-cyclodextrin (ACD), β-cyclodextrin (BCD), and γ-cyclodextrin (GCD), were obtained from Wacker Chemie (Munich, Germany). The following derivatized cyclodextrins were obtained from Cyclolab Ltd. (Budapest, Hungary): hydroxypropylated-beta-cyclodextrin (DS˜3)(HPBCD), carboxymethylated-β-cyclodextrin (DS˜3.5)(CMBCD), 2-hydroxy-3-N,N,N-trimethylamino)propyl-β-cyclodextrin chloride (DS˜3.6)(QABCD).
Germination kinetics in control and additive-modified water under identical conditions were quantified as the percentage of the seeds having a sprout. Each determination consisted of 100 seeds for each parameter. Results are reported in Table 1, below, and in FIGS. 11-13.

[4] = life span 10 days, parent cyclodextrin 0.1% w/v in media, Table 3
[5] = life span 15 days, parent cyclodextrin 0.1% w/v in media, Table 3
[6] = life span 18 days, parent cyclodextrin 0.1% w/v in media, Table 3
[7] = life span 10 days, derivatized cyclodextrin 0.1% w/v in media, Table 4
[8] = life span 15 days, derivatized cyclodextrin 0.1% w/v in media, Table 4
[9] = life span 18 days, derivatized cyclodextrin 0.1% w/v in media, Table 4
[10] = wavelength region 900-1200 nm, FIG. 7

Compound	Animals alive [1, 4]	Animals alive [1, 5]	Animals alive [1, 6]	Animals alive [1, 7]	Animals alive [1, 8]	Animals alive [1, 9]	water-bond interactions, second-derivative NIR spectra ([2]; 1200-1500 nm, FIG. 8)	water-bond interactions, second-derivative NIR spectra ([2]; 1620-1710 nm, FIG. 9)	water-bond interactions, second-derivative NIR spectra ([2]; 2170-2370 nm, FIG. 10)	water-bond interactions, second-derivative NIR spectra [2, 10]	also measured
OC[C@H]1O[C@@H]2O[C@H]3[C@H](O)[C@@H](O)[C@@H](O[C@H]4[C@H](O)[C@@H](O)[C@@H](O[C@H]5[C@H](O)[C@@H](O)[C@@H](O[C@H]6[C@H](O)[C@@H](O)[C@@H](O[C@H]7[C@H](O)[C@@H](O)[C@@H](O[C@H]8[C@H](O)[C@@H](O)[C@@H](O[C@H]9[C@H](O)[C@@H](O)[C@@H](O[C@H]1[C@H](O)[C@H]2O)O[C@@H]9CO)O[C@@H]8CO)O[C@@H]7CO)O[C@@H]6CO)O[C@@H]5CO)O[C@@H]4CO)O[C@@H]3CO [γ-Cyclodextrin, γ-cyclodextrin]	100 % of initial	13 % of initial	2 % of initial								
2-hydroxy-3-N,N,N-trimethylamino)propyl-β-cyclodextrin chloride [Quaternaryammonium-β-Cyclodextrin]				98 % of initial	13 % of initial	2 % of initial	significantly modified	significantly modified	further significantly modified	significantly modified	modified micro-structure of hydrogen bonds in bulk water (spectral changes), ranking of effect ([2]; among cyclodextrin-treated water samples, FIGS. 9 and 10): largest
carboxymethyl-β-cyclodextrin				94 % of initial	11 % of initial	0 % of initial	further significantly modified	significantly modified	significantly modified	further significantly modified	
OC[C@H]1O[C@@H]2O[C@H]3[C@H](O)[C@@H](O)[C@@H](O[C@H]4[C@H](O)[C@@H](O)[C@@H](O[C@H]5[C@H](O)[C@@H](O)[C@@H](O[C@H]6[C@H](O)[C@@H](O)[C@@H](O[C@H]7[C@H](O)[C@@H](O)[C@@H](O[C@H]1[C@H](O)[C@H]2O)O[C@@H]7CO)O[C@@H]6CO)O[C@@H]5CO)O[C@@H]4CO)O[C@@H]3CO [α-Cyclodextrin, α-cyclodextrin]	100 % of initial	20 % of initial	2 % of initial								wheat seed germination rate ([3]; day 0, Table 1): 0 percentage of total seeds; wheat seed germination rate ([3]; day 0, Table 2): 0 percentage of the seeds; wheat seed germination rate ([3]; day 1, Table 1): 0 percentage of total seeds; wheat seed germination rate ([3]; day 1, Table 2): 11 percentage of the seeds; wheat seed germination rate ([3]; day 2, Table 1): 48 percentage of total seeds; wheat seed germination rate ([3]; day 2, Table 2): 18 percentage of the seeds; wheat seed germination rate ([3]; day 3, Table 1): 70 percentage of total seeds; wheat seed germination rate ([3]; day 3, Table 2): 68 percentage of the seeds; wheat seed germination rate ([3]; day 4, Table 1): 85 percentage of total seeds; wheat seed germination rate ([3]; day 4, Table 2): 92 percentage of the seeds
N=C(N)NCCC[C@H](N)C(=O)O [L-Arg, L-arginine, reference compound]											wheat seed germination rate ([3]; day 0, Table 1): 0 percentage of total seeds; wheat seed germination rate ([3]; day 1, Table 1): 0 percentage of total seeds; wheat seed germination rate ([3]; day 2, Table 1): 30 percentage of total seeds; wheat seed germination rate ([3]; day 3, Table 1): 45 percentage of total seeds; wheat seed germination rate ([3]; day 4, Table 1): 60 percentage of total seeds; effect on C. elegans survival [1]: little effect
CC(O)COC[C@H]1O[C@@H]2O[C@H]3[C@H](O)[C@@H](O)[C@@H](O[C@H]4[C@H](O)[C@@H](O)[C@@H](O[C@H]5[C@H](O)[C@@H](O)[C@@H](O[C@H]6[C@H](O)[C@@H](O)[C@@H](O[C@H]7[C@H](O)[C@@H](O)[C@@H](O[C@H]8[C@H](O)[C@@H](O)[C@@H](O[C@H]1[C@H](O)[C@H]2O)O[C@@H]8COCC(C)O)O[C@@H]7COCC(C)O)O[C@@H]6COCC(C)O)O[C@@H]5COCC(C)O)O[C@@H]4COCC(C)O)O[C@@H]3COCC(C)O (stereo partly drawn) [HP-β-Cyclodextrin, 2-hydroxypropyl-β-cyclodextrin]				96 % of initial	17 % of initial	0 % of initial	significantly modified	significantly modified	significantly modified	further significantly modified	
NC(=O)c1cccnc1 [nicotinamide, reference compound]											wheat seed germination rate ([3]; day 0, Table 2): 0 percentage of the seeds; wheat seed germination rate ([3]; day 1, Table 2): 0 percentage of the seeds; wheat seed germination rate ([3]; day 2, Table 2): 4 percentage of the seeds; wheat seed germination rate ([3]; day 3, Table 2): 10 percentage of the seeds; wheat seed germination rate ([3]; day 4, Table 2): 60 percentage of the seeds; effect on C. elegans survival [1]: little effect
OC[C@H]1O[C@@H]2O[C@H]3[C@H](O)[C@@H](O)[C@@H](O[C@H]4[C@H](O)[C@@H](O)[C@@H](O[C@H]5[C@H](O)[C@@H](O)[C@@H](O[C@H]6[C@H](O)[C@@H](O)[C@@H](O[C@H]7[C@H](O)[C@@H](O)[C@@H](O[C@H]8[C@H](O)[C@@H](O)[C@@H](O[C@H]1[C@H](O)[C@H]2O)O[C@@H]8CO)O[C@@H]7CO)O[C@@H]6CO)O[C@@H]5CO)O[C@@H]4CO)O[C@@H]3CO [β-Cyclodextrin, β-cyclodextrin]	100 % of initial	18 % of initial	0 % of initial								
